# In publication PMC5218480 (PLoS ONE, 2017):
# Tested on: MV-4-11 cells
# Assay: Gene expression microarray analysis (Affymetrix PrimeView) and GSEA
# Assay type: cell-based, human
# Parameters: RFU PODN (11730768_x_at) / Fold change /veh PODN (11730768_x_at) / RFU LINC00158 (11744669_a_at) / Fold change /veh LINC00158 (11744669_a_at) / RFU DUSP10 (11751237_a_at) / Fold change /veh DUSP10 (11751237_a_at) / RFU ID3 (11757404_x_at) / Fold change /veh ID3 (11757404_x_at) / RFU PLEKHG5 (11737974_s_at) / Fold change /veh PLEKHG5 (11737974_s_at) / RFU LRRC4B (11730491_at) / Fold change /veh LRRC4B (11730491_at) / RFU GIMAP4 (11747438_a_at) / Fold change /veh GIMAP4 (11747438_a_at) / RFU KRT8 (11758183_x_at) / Fold change /veh KRT8 (11758183_x_at) / RFU CNN1 (11734310_a_at) / Fold change /veh CNN1 (11734310_a_at) / RFU VPS37D (11726825_at) / Fold change /veh VPS37D (11726825_at) / RFU C10orf10 (11716522_x_at) / Fold change /veh C10orf10 (11716522_x_at) / RFU KIR2DL2 /// KIR2DL4 /// KIR2DL5A /// KIR2DL5B /// KIR2DS1 /// KIR2DS2 /// KIR2DS3 /// KIR2DS4 /// KIR3DL3 /// KIR3DL3 /// KIR3DS1 (11738374_at) / Fold change /veh KIR2DL2 /// KIR2DL4 /// KIR2DL5A /// KIR2DL5B /// KIR2DS1 /// KIR2DS2 /// KIR2DS3 /// KIR2DS4 /// KIR3DL3 /// KIR3DL3 /// KIR3DS1 (11738374_at) / RFU C1QL1 (11718748_at) / Fold change /veh C1QL1 (11718748_at) / RFU TMPRSS4 (11747572_a_at) / Fold change /veh TMPRSS4 (11747572_a_at) / RFU HAMP (11756126_x_at) / Fold change /veh HAMP (11756126_x_at) / RFU RNFT2 (11725882_a_at) / Fold change /veh RNFT2 (11725882_a_at) / RFU NR4A2 (11747474_a_at) / Fold change /veh NR4A2 (11747474_a_at) / RFU ABCC12 (11746883_a_at) / Fold change /veh ABCC12 (11746883_a_at) / RFU TMEM136 (11760407_x_at) / Fold change /veh TMEM136 (11760407_x_at) / RFU CLDN22 /// WWC2 (11732394_at) / Fold change /veh CLDN22 /// WWC2 (11732394_at) / RFU HLA-DPB1 (11760878_x_at) / Fold change /veh HLA-DPB1 (11760878_x_at) / RFU SPINT1 (11716480_a_at) / Fold change /veh SPINT1 (11716480_a_at) / RFU GAP43 (11754022_s_at) / Fold change /veh GAP43 (11754022_s_at) / RFU A4GNT (11735810_at) / Fold change /veh A4GNT (11735810_at) / RFU PRB3 (11715151_x_at) / Fold change /veh PRB3 (11715151_x_at) / RFU TUBB4B (11761932_at) / Fold change /veh TUBB4B (11761932_at) / RFU CAPN14 (11732068_a_at) / Fold change /veh CAPN14 (11732068_a_at) / RFU TMCC2 (11721928_a_at) / Fold change /veh TMCC2 (11721928_a_at) / RFU IRGQ (11745062_a_at) / Fold change /veh IRGQ (11745062_a_at) / RFU FAM174B (11720279_a_at) / Fold change /veh FAM174B (11720279_a_at) / RFU TMPRSS4 (11748680_a_at) / Fold change /veh TMPRSS4 (11748680_a_at) / RFU FAM212B (11763350_a_at) / Fold change /veh FAM212B (11763350_a_at) / RFU PLEKHG5 (11743358_a_at) / Fold change /veh PLEKHG5 (11743358_a_at) / RFU ZSCAN30 (11745921_a_at) / Fold change /veh ZSCAN30 (11745921_a_at) / RFU CMKLR1 (11741424_a_at) / Fold change /veh CMKLR1 (11741424_a_at) / RFU LOC101060620 /// MAPK8IP1 (11723275_at) / Fold change /veh LOC101060620 /// MAPK8IP1 (11723275_at) / RFU SPTSSB (11747773_x_at) / Fold change /veh SPTSSB (11747773_x_at) / RFU PRSS12 (11739890_at) / Fold change /veh PRSS12 (11739890_at) / RFU BIN1 (11741810_x_at) / Fold change /veh BIN1 (11741810_x_at) / RFU WNT11 (11732464_a_at) / Fold change /veh WNT11 (11732464_a_at) / RFU C10orf10 (11716521_a_at) / Fold change /veh C10orf10 (11716521_a_at) / RFU C5orf56 (11738089_at) / Fold change /veh C5orf56 (11738089_at) / RFU CYB561 (11721691_x_at) / Fold change /veh CYB561 (11721691_x_at) / RFU ANKRD19P (11752326_a_at) / Fold change /veh ANKRD19P (11752326_a_at) / RFU OR2T12 /// OR2T33 /// OR2T8 (11738714_s_at) / Fold change /veh OR2T12 /// OR2T33 /// OR2T8 (11738714_s_at) / RFU VCAN (11748164_a_at) / Fold change /veh VCAN (11748164_a_at) / RFU JSRP1 (11732532_at) / Fold change /veh JSRP1 (11732532_at) / RFU KRTAP10-11 (11738290_x_at) / Fold change /veh KRTAP10-11 (11738290_x_at) / RFU MYO3A (11730013_a_at) / Fold change /veh MYO3A (11730013_a_at) / RFU EBF3 (11725865_a_at) / Fold change /veh EBF3 (11725865_a_at) / RFU CAMK2N1 (11719241_x_at) / Fold change /veh CAMK2N1 (11719241_x_at) / RFU C5orf56 (11738088_a_at) / Fold change /veh C5orf56 (11738088_a_at) / RFU OLFML3 (11715873_a_at) / Fold change /veh OLFML3 (11715873_a_at) / RFU LOC100653217 /// NTM (11731650_a_at) / Fold change /veh LOC100653217 /// NTM (11731650_a_at) / RFU MAPK11 (11762145_a_at) / Fold change /veh MAPK11 (11762145_a_at) / RFU FIZ1 (11724087_x_at) / Fold change /veh FIZ1 (11724087_x_at) / RFU OASL (11726364_x_at) / Fold change /veh OASL (11726364_x_at) / RFU SOX15 (11748057_x_at) / Fold change /veh SOX15 (11748057_x_at) / RFU CD79A (11719716_a_at) / Fold change /veh CD79A (11719716_a_at) / RFU HIST1H1D (11736915_at) / Fold change /veh HIST1H1D (11736915_at) / RFU CASKIN2 (11723855_a_at) / Fold change /veh CASKIN2 (11723855_a_at) / RFU LOC730098 (11760151_x_at) / Fold change /veh LOC730098 (11760151_x_at) / RFU OR4N2 (11742367_at) / Fold change /veh OR4N2 (11742367_at) / RFU PRRT2 (11749266_a_at) / Fold change /veh PRRT2 (11749266_a_at) / RFU SNX32 (11753110_a_at) / Fold change /veh SNX32 (11753110_a_at) / RFU CDHR5 (11726645_a_at) / Fold change /veh CDHR5 (11726645_a_at) / RFU RCAN1 (11760418_a_at) / Fold change /veh RCAN1 (11760418_a_at) / RFU FAM167A (11723789_a_at) / Fold change /veh FAM167A (11723789_a_at) / RFU FAM26E (11764081_at) / Fold change /veh FAM26E (11764081_at) / RFU ISYNA1 (11749810_s_at) / Fold change /veh ISYNA1 (11749810_s_at) / RFU ACY1 (11761880_at) / Fold change /veh ACY1 (11761880_at) / RFU 11764098_at / Fold change /veh 11764098_at / RFU SAMD14 (11745864_x_at) / Fold change /veh SAMD14 (11745864_x_at) / RFU NPB (11741838_a_at) / Fold change /veh NPB (11741838_a_at) / RFU TMPRSS6 (11731388_a_at) / Fold change /veh TMPRSS6 (11731388_a_at) / RFU KRTAP10-2 (11738614_at) / Fold change /veh KRTAP10-2 (11738614_at) / RFU ARHGAP8 /// PRR5-ARHGAP8 (11727945_x_at) / Fold change /veh ARHGAP8 /// PRR5-ARHGAP8 (11727945_x_at) / RFU KRTAP5-7 /// NADSYN1 (11734609_at) / Fold change /veh KRTAP5-7 /// NADSYN1 (11734609_at) / RFU RASL12 (11751679_a_at) / Fold change /veh RASL12 (11751679_a_at) / RFU CDKN2B (11736163_a_at) / Fold change /veh CDKN2B (11736163_a_at) / RFU PRF1 (11729649_at) / Fold change /veh PRF1 (11729649_at) / RFU, ZNF638 /// ZNF638-IT1 / Fold change vs veh, ZNF638 /// ZNF638-IT1 / RFU, PANK3 / Fold change vs veh, PANK3 / RFU, SH3YL1 / Fold change vs veh, SH3YL1 / RFU, ZEB2 / Fold change vs veh, ZEB2 / RFU, NRIP1 / Fold change vs veh, NRIP1 / RFU, PTTG1IP / Fold change vs veh, PTTG1IP / RFU, CAPN2 / Fold change vs veh, CAPN2 / RFU, MED14 / Fold change vs veh, MED14 / RFU, SNORA58 / Fold change vs veh, SNORA58 / RFU, C1orf63 / Fold change vs veh, C1orf63 / RFU, LRRFIP1 / Fold change vs veh, LRRFIP1 / RFU, NDUFAF7 / Fold change vs veh, NDUFAF7 / RFU, SLC12A2 / Fold change vs veh, SLC12A2 / RFU, IBTK / Fold change vs veh, IBTK / RFU, ESF1 / Fold change vs veh, ESF1 / Fold change vs veh, TMEM50B / RFU, TAOK1 / Fold change vs veh, TAOK1 / RFU, ACBD3 / Fold change vs veh, ACBD3 / RFU, TMA16 / Fold change vs veh, TMA16 / RFU, RWDD3 / Fold change vs veh, RWDD3 / RFU, BCAT1 / Fold change vs veh, BCAT1 / RFU, EDEM3 / Fold change vs veh, EDEM3 / RFU, TMEM33 / Fold change vs veh, TMEM33 / RFU, WDR75 / Fold change vs veh, WDR75 / RFU, AHCTF1 / Fold change vs veh, AHCTF1 / RFU, TFRC / Fold change vs veh, TFRC / RFU, ZDHHC17 / Fold change vs veh, ZDHHC17 / RFU, NOM1 / Fold change vs veh, NOM1 / RFU, ARL8B / Fold change vs veh, ARL8B / RFU, ZBTB11 / Fold change vs veh, ZBTB11 / RFU, TAMM41 / Fold change vs veh, TAMM41 / RFU, KIAA1704 /// LOC100996395 / Fold change vs veh, KIAA1704 /// LOC100996395 / RFU, ING1 / Fold change vs veh, ING1 / RFU, TRMT61B / Fold change vs veh, TRMT61B / RFU, FUBP3 / Fold change vs veh, FUBP3 / RFU, TP53 / Fold change vs veh, TP53 / RFU, TNKS2 / Fold change vs veh, TNKS2 / RFU, ZFP14 / Fold change vs veh, ZFP14 / RFU, ACTR2 / Fold change vs veh, ACTR2 / RFU, PPP3R1 / Fold change vs veh, PPP3R1 / RFU, PIK3R1 / Fold change vs veh, PIK3R1 / RFU, HNRNPA1 / Fold change vs veh, HNRNPA1 / RFU, RNF170 / Fold change vs veh, RNF170 / RFU, ZNF28 / Fold change vs veh, ZNF28 / RFU, RNGTT / Fold change vs veh, RNGTT / RFU, OGT / Fold change vs veh, OGT / RFU, BRD1 / Fold change vs veh, BRD1 / RFU, MARS / Fold change vs veh, MARS / RFU, ZNF655 / Fold change vs veh, ZNF655 / RFU, FAHD1 / Fold change vs veh, FAHD1 / RFU, BDP1 / Fold change vs veh, BDP1 / RFU, LRRCC1 / Fold change vs veh, LRRCC1 / RFU, ARID1A / Fold change vs veh, ARID1A / RFU, ZNF146 / Fold change vs veh, ZNF146 / RFU, ZNF330 / Fold change vs veh, ZNF330 / RFU, GPN3 / Fold change vs veh, GPN3 / RFU, C9orf123 / Fold change vs veh, C9orf123 / RFU, N4BP2L2 / Fold change vs veh, N4BP2L2 / RFU, ARFIP1 / Fold change vs veh, ARFIP1 / RFU, FAM179B / Fold change vs veh, FAM179B / RFU, BCL10 / Fold change vs veh, BCL10 / RFU, UHRF1BP1L / Fold change vs veh, UHRF1BP1L / RFU, BET1 / Fold change vs veh, BET1 / RFU, CNOT2 / Fold change vs veh, CNOT2 / RFU, ZNF268 / Fold change vs veh, ZNF268 / Fold change vs veh, ZNF507 / RFU, DGCR2 / Fold change vs veh, DGCR2 / RFU, WDSUB1 / Fold change vs veh, WDSUB1 / Fold change vs veh, HSP90B1 /// MIR3652 / RFU, ADSS / Fold change vs veh, ADSS / RFU, GK / Fold change vs veh, GK / RFU, ZNF148 / Fold change vs veh, ZNF148 / RFU, TAF9 / Fold change vs veh, TAF9 / RFU, SLC1A5 / Fold change vs veh, SLC1A5 / RFU, SLMO2 / Fold change vs veh, SLMO2 / RFU, ABCC4 / Fold change vs veh, ABCC4 / RFU, LOC101060439 /// RAP1B / Fold change vs veh, LOC101060439 /// RAP1B / RFU, RFX7 / Fold change vs veh, RFX7 / RFU, GTPBP10 / Fold change vs veh, GTPBP10 / RFU, CNEP1R1 / Fold change vs veh, CNEP1R1 / RFU, BIVM-ERCC5 /// ERCC5 / Fold change vs veh, BIVM-ERCC5 /// ERCC5 / RFU, ILF3 / Fold change vs veh, ILF3 / RFU 11762660_at / Fold change /veh 11762660_at / RFU VCAN (11757783_s_at) / Fold change /veh VCAN (11757783_s_at) / RFU DDX43 (11728927_at) / Fold change /veh DDX43 (11728927_at) / RFU KRT8 (11758188_x_at) / Fold change /veh KRT8 (11758188_x_at) / RFU NKD1 (11759106_at) / Fold change /veh NKD1 (11759106_at) / RFU SRD5A1 (11742802_a_at) / Fold change /veh SRD5A1 (11742802_a_at) / RFU TPSAB1 /// TPSB2 (11721975_s_at) / Fold change /veh TPSAB1 /// TPSB2 (11721975_s_at) / RFU GSTM3 (11746129_a_at) / Fold change /veh GSTM3 (11746129_a_at) / RFU IL23R (11737362_x_at) / Fold change /veh IL23R (11737362_x_at) / RFU TMEM51 (11727254_a_at) / Fold change /veh TMEM51 (11727254_a_at) / RFU PIWIL2 (11732686_x_at) / Fold change /veh PIWIL2 (11732686_x_at) / RFU ORM1 (11744905_x_at) / Fold change /veh ORM1 (11744905_x_at) / RFU CCDC152 (11743942_at) / Fold change /veh CCDC152 (11743942_at) / RFU ECM1 (11717891_a_at) / Fold change /veh ECM1 (11717891_a_at) / RFU IL23R (11748794_a_at) / Fold change /veh IL23R (11748794_a_at) / RFU TNFAIP8L3 (11732012_x_at) / Fold change /veh TNFAIP8L3 (11732012_x_at) / RFU MBOAT4 (11741988_at) / Fold change /veh MBOAT4 (11741988_at) / RFU 11764193_at / Fold change /veh 11764193_at / RFU TMEM53 (11763286_at) / Fold change /veh TMEM53 (11763286_at) / RFU MAGEB2 (11727129_at) / Fold change /veh MAGEB2 (11727129_at) / RFU TMEM200A (11744735_a_at) / Fold change /veh TMEM200A (11744735_a_at) / RFU CCDC152 (11751479_a_at) / Fold change /veh CCDC152 (11751479_a_at) / RFU FAM211A (11726209_a_at) / Fold change /veh FAM211A (11726209_a_at) / RFU RGS16 (11746705_a_at) / Fold change /veh RGS16 (11746705_a_at) / RFU VCAN (11755009_s_at) / Fold change /veh VCAN (11755009_s_at) / RFU RHOB (11743442_s_at) / Fold change /veh RHOB (11743442_s_at) / RFU RGS16 (11720943_a_at) / Fold change /veh RGS16 (11720943_a_at) / RFU RGS16 (11720944_at) / Fold change /veh RGS16 (11720944_at) / RFU, VPS4B / Fold change vs veh, VPS4B / RFU, CREB1 / Fold change vs veh, CREB1 / RFU, DNAJC13 / Fold change vs veh, DNAJC13 / RFU, GNAQ / Fold change vs veh, GNAQ / RFU, CDK5R1 / Fold change vs veh, CDK5R1 / RFU, ZRANB3 / Fold change vs veh, ZRANB3 / RFU, CUL4A / Fold change vs veh, CUL4A / RFU, CCNY / Fold change vs veh, CCNY / RFU, UFL1 / Fold change vs veh, UFL1 / RFU, COG3 / Fold change vs veh, COG3 / RFU, DIAPH2 / Fold change vs veh, DIAPH2 / RFU, SKA2 / Fold change vs veh, SKA2 / RFU, AFF3 / Fold change vs veh, AFF3 / RFU, LMF1 / Fold change vs veh, LMF1 / RFU, IPO11 / Fold change vs veh, IPO11 / RFU, DFFB / Fold change vs veh, DFFB / RFU, FOXP1 / Fold change vs veh, FOXP1 / RFU, CARD8 / Fold change vs veh, CARD8 / RFU, STRN3 / Fold change vs veh, STRN3 / RFU, ADK / Fold change vs veh, ADK / RFU, RASSF2 / Fold change vs veh, RASSF2 / RFU, WIPF1 / Fold change vs veh, WIPF1 / RFU, LARP1B / Fold change vs veh, LARP1B / RFU, RASA1 / Fold change vs veh, RASA1 / RFU, RB1 / Fold change vs veh, RB1 / RFU, PPFIA1 / Fold change vs veh, PPFIA1 / RFU, MAT2A / Fold change vs veh, MAT2A / RFU, CCT5 / Fold change vs veh, CCT5 / RFU, WDR92 / Fold change vs veh, WDR92 / RFU, CUX1 / Fold change vs veh, CUX1 / RFU, TTC7A / Fold change vs veh, TTC7A / RFU, TMEM135 / Fold change vs veh, TMEM135 / RFU, DEPTOR / Fold change vs veh, DEPTOR / RFU, CPM / Fold change vs veh, CPM / RFU, DNAJB6 / Fold change vs veh, DNAJB6 / RFU, CACNA2D3 / Fold change vs veh, CACNA2D3 / RFU, DTX4 / Fold change vs veh, DTX4 / RFU, TFCP2 / Fold change vs veh, TFCP2 / RFU, GMCL1 /// GMCL1P1 / Fold change vs veh, GMCL1 /// GMCL1P1 / RFU, AEBP2 / Fold change vs veh, AEBP2 / RFU, SNHG1 /// SNORD22 /// SNORD25 /// SNORD26 /// SNORD27 /// SNORD28 /// SNORD29 /// SNORD31 / Fold change vs veh, SNHG1 /// SNORD22 /// SNORD25 /// SNORD26 /// SNORD27 /// SNORD28 /// SNORD29 /// SNORD31 / Fold change (Aza/veh), C12orf56 (ProbeSet 11735607_a_at) / Fold change (ACY-1035/veh), C12orf56 (ProbeSet 11735607_a_at) / Fold change (Aza/veh), FGFR1OP (ProbeSet 11751329_s_at) / Fold change (ACY-1035/veh), FGFR1OP (ProbeSet 11751329_s_at) / Fold change (Aza/veh), VPS36 (ProbeSet 11739960_a_at) / Fold change (ACY-1035/veh), VPS36 (ProbeSet 11739960_a_at) / RFU SYPL1 (11715823_x_at) / Fold change /veh SYPL1 (11715823_x_at) / RFU IGFBP7 (11715501_s_at) / Fold change /veh IGFBP7 (11715501_s_at) / RFU REEP3 (11722064_at) / Fold change /veh REEP3 (11722064_at) / RFU IGLL1 (11728026_x_at) / Fold change /veh IGLL1 (11728026_x_at): dose or concentration left out as unconfirmed
# Conditions: ProbeSet 11749645_x_at; LIST B
structure (smiles),measurement,value
Nc1ccc(-c2cccs2)cc1NC(=O)c1ccc2c(c1)cc(C1CC1)n2CCN1CCOCC1 [ACY-1035],"Fold change vs veh, ZNF268",0.87
